Earlier results, collected in US20240252632A1, “METHODS OF TREATING LUNG CANCER WITH A PD-1 AXIS BINDING ANTAGONIST, AN ANTIMETABOLITE, AND A PLATINUM AGENT” (Genentech, Inc., priority 2018, published 2024).

In the case of [NH3+][Pt-2]1([NH3+])[O]C(=O)C2(CCC2)C(=O)[O]1 [Carboplatin, platinum, diammine[1,1-cyclobutanedicarboxylato(2-)-O,O′]—, (SP-4-2)], the “solubility in ethanol, acetone, and dimethylacetamide” value (ethanol, acetone, dimethylacetamide) is listed as “virtually insoluble” and the solubility in water (water) is listed as “approximately 14 mg/mL”.
